According to patent US11229623B2 (GlaxoSmithKline Intellectual Property (No.2) Limited, priority 2016, dated 2022):

Molecular target: T1, human TRPV4 (Homo sapiens, UniProt Q9HBA0)
T1 construct: expressed in transfected cells; host or cells: BHK/AC9 cells transduced with BacMam virus
Test: FLIPR assay for hTRPV4 expressed in BHK cells: inhibition of Agonist Compound-induced calcium signal
Assay type: cell-based
Conditions: hTRPV4 in BHK/AC9 cells, FLIPR calcium signal, agonist at EC80; reported as range class; read-out: IC50
Procedure, shortened: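 Calcium influx through TRPV4 tracked by Fluo-4 fluorescence on FLIPR. Cells: BHK/AC9 transduced with BacMam-hTRPV4 at MOI 78, 24 h culture post-plating (15,000 cells/well). Dye loading: 2 μM Fluo-4 AM with 500 μM Brilliant Black quencher, 1-1.5 h, room temperature, dark.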

T1 sequence (Q9HBA0 whole entry): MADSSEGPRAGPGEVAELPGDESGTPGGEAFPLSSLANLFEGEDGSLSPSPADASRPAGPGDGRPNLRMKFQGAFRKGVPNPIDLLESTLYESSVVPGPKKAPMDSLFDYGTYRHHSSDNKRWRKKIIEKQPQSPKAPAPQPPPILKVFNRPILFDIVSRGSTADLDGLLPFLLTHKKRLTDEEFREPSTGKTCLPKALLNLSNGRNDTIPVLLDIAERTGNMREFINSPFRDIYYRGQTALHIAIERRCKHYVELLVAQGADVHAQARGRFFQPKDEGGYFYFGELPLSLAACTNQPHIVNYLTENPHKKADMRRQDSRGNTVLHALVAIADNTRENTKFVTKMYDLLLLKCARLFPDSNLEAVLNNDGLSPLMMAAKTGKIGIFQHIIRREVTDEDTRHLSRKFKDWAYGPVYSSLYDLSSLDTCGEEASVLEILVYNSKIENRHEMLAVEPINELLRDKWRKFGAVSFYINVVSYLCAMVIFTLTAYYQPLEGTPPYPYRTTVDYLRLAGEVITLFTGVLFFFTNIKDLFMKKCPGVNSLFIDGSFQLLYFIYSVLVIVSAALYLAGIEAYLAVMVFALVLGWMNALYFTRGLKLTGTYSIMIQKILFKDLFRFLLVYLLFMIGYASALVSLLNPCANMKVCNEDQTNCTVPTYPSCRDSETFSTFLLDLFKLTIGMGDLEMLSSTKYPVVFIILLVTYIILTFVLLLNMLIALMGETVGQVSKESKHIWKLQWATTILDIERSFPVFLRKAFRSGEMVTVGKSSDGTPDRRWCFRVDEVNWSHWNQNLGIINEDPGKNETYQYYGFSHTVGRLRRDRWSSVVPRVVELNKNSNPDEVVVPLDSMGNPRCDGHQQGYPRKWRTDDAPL

| Structure (SMILES) | IC50 [nM] |
| --- | --- |
| CCOc1cc(C#N)c(F)cc1O[C@H]1CN(S(=O)(=O)c2ccc(C(F)(F)F)cc2C#N)C[C@@]1(O)CO [Example 159, 4-(((3S,4R)-1-((2-cyano-4-(trifluoromethyl)phenyl)sulfonyl)-4-hydroxy-4-(hydroxymethyl)pyrrolidin-3-yl)oxy)-5-ethoxy-2-fluorobenzonitrile] | 0.1 to 10 |
| CCCOc1cc(C#N)c(F)cc1O[C@H]1CN(S(=O)(=O)c2ccc(C(F)(F)F)cc2C#N)C[C@@]1(O)CO [Example 160, 4-(((3S,4R)-1-((2-cyano-4-(trifluoromethyl)phenyl)sulfonyl)-4-hydroxy-4-(hydroxymethyl)pyrrolidin-3-yl)oxy)-2-fluoro-5-propoxybenzonitrile] | 0.1 to 10 |
| CC(C)Oc1cc(C#N)c(F)cc1O[C@H]1CN(S(=O)(=O)c2ccc(C(F)(F)F)cc2C#N)C[C@@]1(O)CO [Example 161, 4-(((3S,4R)-1-((2-cyano-4-(trifluoromethyl)phenyl)sulfonyl)-4-hydroxy-4-(hydroxymethyl)pyrrolidin-3-yl)oxy)-2-fluoro-5-isopropoxybenzonitrile] | 0.1 to 10 |
| N#Cc1cc(O)c(O[C@H]2CN(S(=O)(=O)c3ccc(C(F)(F)F)cc3C#N)C[C@@]2(O)CO)cc1F [Example 162, 4-(((3S,4R)-1-((2-cyano-4-(trifluoromethyl)phenyl)sulfonyl)-4-hydroxy-4-(hydroxymethyl)pyrrolidin-3-yl)oxy)-2-fluoro-5-hydroxybenzonitrile] | 0.1 to 10 |
| N#Cc1cc(OCc2ccccc2)c(O[C@H]2CN(S(=O)(=O)c3ccc(C(F)(F)F)cc3C#N)C[C@@]2(O)CO)cc1F [Example 163, 5-(benzyloxy)-4-(((3S,4R)-1-((2-cyano-4-(trifluoromethyl)phenyl)sulfonyl)-4-hydroxy-4-(hydroxymethyl)pyrrolidin-3-yl)oxy)-2-fluorobenzonitrile] | 0.1 to 10 |
| CCCCOc1cc(C#N)c(F)cc1O[C@H]1CN(S(=O)(=O)c2ccc(C(F)(F)F)cc2C#N)C[C@@]1(O)CO [Example 164, 5-butoxy-4-(((3S,4R)-1-((2-cyano-4-(trifluoromethyl)phenyl)sulfonyl)-4-hydroxy-4-(hydroxymethyl)pyrrolidin-3-yl)oxy)-2-fluorobenzonitrile] | 0.1 to 10 |
| CC(C)COc1cc(C#N)c(F)cc1O[C@H]1CN(S(=O)(=O)c2ccc(C(F)(F)F)cc2C#N)C[C@@]1(O)CO [Example 165, 4-(((3S,4R)-1-((2-cyano-4-(trifluoromethyl)phenyl)sulfonyl)-4-hydroxy-4-(hydroxymethyl)pyrrolidin-3-yl)oxy)-2-fluoro-5-isobutoxybenzonitrile] | 0.1 to 10 |
| CCCOc1cc(C#N)ccc1O[C@H]1CN(S(=O)(=O)c2ccc(C(F)(F)F)cc2C#N)C[C@@]1(O)CO [Example 166, 2-(((3R,4S)-4-(4-cyano-2-propoxyphenoxy)-3-hydroxy-3-(hydroxymethyl)pyrrolidin-1-yl)sulfonyl)-5-(trifluoromethyl)benzonitrile] | 0.1 to 10 |
| N#Cc1ccc(O[C@H]2CN(S(=O)(=O)c3ccc(C(F)(F)F)cc3C#N)C[C@@]2(O)CO)c(OCC(F)(F)F)c1 [Example 167, 2-(((3R,4S)-4-(4-cyano-2-(2,2,2-trifluoroethoxy)phenoxy)-3-hydroxy-3-(hydroxymethyl)pyrrolidin-1-yl)sulfonyl)-5-(trifluoromethyl)benzonitrile] | 0.1 to 10 |
| N#Cc1ccc(O[C@H]2CN(S(=O)(=O)c3ccc(C(F)(F)F)cc3C#N)C[C@@]2(O)CO)c(O)c1 [Example 168, 2-(((3R,4S)-4-(4-cyano-2-hydroxyphenoxy)-3-hydroxy-3-(hydroxymethyl)pyrrolidin-1-yl)sulfonyl)-5-(trifluoromethyl)benzonitrile] | 10 to 100 |
| CCCCOc1cc(C#N)ccc1O[C@H]1CN(S(=O)(=O)c2ccc(C(F)(F)F)cc2C#N)C[C@@]1(O)CO [Example 169, 2-(((3R,4S)-4-(2-butoxy-4-cyanophenoxy)-3-hydroxy-3-(hydroxymethyl)pyrrolidin-1-yl)sulfonyl)-5-(trifluoromethyl)benzonitrile] | 0.1 to 10 |
| CC(C)COc1cc(C#N)ccc1O[C@H]1CN(S(=O)(=O)c2ccc(C(F)(F)F)cc2C#N)C[C@@]1(O)CO [Example 170, 2-(((3R,4S)-4-(4-cyano-2-isobutoxyphenoxy)-3-hydroxy-3-(hydroxymethyl)pyrrolidin-1-yl)sulfonyl)-5-(trifluoromethyl)benzonitrile] | 0.1 to 10 |
| N#Cc1ccc(O[C@H]2CN(S(=O)(=O)c3ccc(C(F)(F)F)cc3C#N)C[C@@]2(O)CO)c(OCc2ccccc2)c1 [Example 171, 2-(((3R,4S)-4-(2-(benzyloxy)-4-cyanophenoxy)-3-hydroxy-3-(hydroxymethyl)pyrrolidin-1-yl)sulfonyl)-5-(trifluoromethyl)benzonitrile] | 0.1 to 10 |
| N#Cc1ccc(S(=O)(=O)N2C[C@H](Oc3ccc(C#N)cc3OCC(F)(F)F)[C@](O)(CO)C2)cc1 [Example 172, 4-(((3S,4R)-1-((4-cyanophenyl)sulfonyl)-4-hydroxy-4-(hydroxymethyl)pyrrolidin-3-yl)oxy)-3-(2,2,2-trifluoroethoxy)benzonitrile] | 10 to 100 |
| N#Cc1cc(OCC(F)(F)F)c(O[C@H]2CN(S(=O)(=O)c3ccccc3C#N)C[C@@]2(O)CO)cc1F [Example 173, 4-(((3S,4R)-1-((2-cyanophenyl)sulfonyl)-4-hydroxy-4-(hydroxymethyl)pyrrolidin-3-yl)oxy)-2-fluoro-5-(2,2,2-trifluoroethoxy) benzonitrile] | 0.1 to 10 |
| N#Cc1ccc(S(=O)(=O)N2C[C@H](Oc3cc(F)c(C#N)cc3OCC(F)(F)F)[C@](O)(CO)C2)cn1 [Example 174, 5-(((3R,4S)-4-(4-cyano-5-fluoro-2-(2,2,2-trifluoroethoxy)phenoxy)-3-hydroxy-3-(hydroxymethyl)pyrrolidin-1-yl)sulfonyl) picolinonitrile] | 0.1 to 10 |
| N#Cc1cc(OCC(F)(F)F)c(O[C@H]2CN(S(=O)(=O)c3ccc(C(F)(F)F)nc3)C[C@@]2(O)CO)cc1F [Example 175, 2-fluoro-4-(((3S,4R)-4-hydroxy-4-(hydroxymethyl)-1-((6-(trifluoromethyl)pyridin-3 yl)sulfonyl)pyrrolidin-3-yl)oxy)-5-(2,2,2-trifluoroethoxy) benzonitrile] | 10 to 100 |
| N#Cc1cc(OCC(F)(F)F)c(O[C@H]2CN(S(=O)(=O)c3ccccc3)C[C@@]2(O)CO)cc1F [Example 176, 2-fluoro-4-(((3S,4R)-4-hydroxy-4-(hydroxymethyl)-1-(phenylsulfonyl)pyrrolidin-3-yl)oxy)-5-(2,2,2-trifluoroethoxy) benzonitrile] | 10 to 100 |
| N#Cc1cc(OCC(F)(F)F)c(O[C@H]2CN(S(=O)(=O)c3ccc(Cl)cc3Cl)C[C@@]2(O)CO)cc1F [Example 177, 4-(((3S,4R)-1-((2,4-dichlorophenyl)sulfonyl)-4-hydroxy-4-(hydroxymethyl)pyrrolidin-3-yl)oxy)-2-fluoro-5-(2,2,2-trifluoroethoxy) benzonitrile] | 0.1 to 10 |
| N#Cc1ccc(S(=O)(=O)N2C[C@H](Oc3cc(F)c(C#N)cc3OCC(F)(F)F)[C@](O)(CO)C2)cc1 [Example 178, 4-(((3S,4R)-1-((4-cyanophenyl)sulfonyl)-4-hydroxy-4-(hydroxymethyl)pyrrolidin-3-yl)oxy)-2-fluoro-5-(2,2,2-trifluoroethoxy) benzonitrile] | 0.1 to 10 |
| CC(C)COc1cc(C#N)c(F)cc1O[C@H]1CN(S(=O)(=O)c2ccccc2C#N)C[C@@]1(O)CO [Example 179, 4-(((3S,4R)-1-((2-cyanophenyl)sulfonyl)-4-hydroxy-4-(hydroxymethyl)pyrrolidin-3-yl)oxy)-2-fluoro-5-isobutoxybenzonitrile] | 0.1 to 10 |
| CC(C)COc1cc(C#N)c(F)cc1O[C@H]1CN(S(=O)(=O)c2ccc(C#N)cc2)C[C@@]1(O)CO [Example 180, 4-(((3S,4R)-1-((4-cyanophenyl)sulfonyl)-4-hydroxy-4-(hydroxymethyl)pyrrolidin-3-yl)oxy)-2-fluoro-5-isobutoxybenzonitrile] | 0.1 to 10 |
| CC(C)COc1cc(C#N)c(F)cc1O[C@H]1CN(S(=O)(=O)c2ccc(C#N)nc2)C[C@@]1(O)CO [Example 181, 5-(((3R,4S)-4-(4-cyano-5-fluoro-2-isobutoxyphenoxy)-3-hydroxy-3-(hydroxymethyl)pyrrolidin-1-yl)sulfonyl) picolinonitrile] | 0.1 to 10 |
| CC(C)COc1cc(C#N)c(F)cc1O[C@H]1CN(S(=O)(=O)c2ccc(C(F)(F)F)cc2)C[C@@]1(O)CO [Example 182, 2-fluoro-4-(((3S,4R)-4-hydroxy-4-(hydroxymethyl)-1-((4-(trifluoromethyl)phenyl)sulfonyl)pyrrolidin-3-yl)oxy)-5-isobutoxybenzonitrile] | 10 to 100 |
| CC(C)COc1cc(C#N)c(F)cc1O[C@H]1CN(S(=O)(=O)c2ccc(C(F)(F)F)nc2)C[C@@]1(O)CO [Example 183, 2-fluoro-4-(((3S,4R)-4-hydroxy-4-(hydroxymethyl)-1-((6-(trifluoromethyl)pyridin-3-yl)sulfonyl)pyrrolidin-3-yl)oxy)-5-isobutoxybenzonitrile] | 10 to 100 |
| N#Cc1ccc(O[C@H]2CN(S(=O)(=O)c3ccc(C#N)nc3)C[C@@]2(O)CO)c(OCC(F)(F)F)c1 [Example 184, 5-(((3R,4S)-4-(4-cyano-2-(2,2,2-trifluoroethoxy)phenoxy)-3-hydroxy-3-(hydroxymethyl)pyrrolidin-1-yl)sulfonyl) picolinonitrile] | 10 to 100 |
| N#Cc1ccc(O[C@H]2CN(S(=O)(=O)c3ccccc3C#N)C[C@@]2(O)CO)c(OCC(F)(F)F)c1 [Example 185, 4-(((3S,4R)-1-((2-cyanophenyl)sulfonyl)-4-hydroxy-4-(hydroxymethyl)pyrrolidin-3-yl)oxy)-3-(2,2,2-trifluoroethoxy) benzonitrile] | 0.1 to 10 |
